The results in this text go back to patent publication US11339130B1 (Blade Therapeutics, Inc., priority 2016, dated 2022).

The structures appear in SMILES notation. Like-named read-outs stand apart in the source and are kept apart here. Some results are limits rather than exact numbers.

The target of one experiment is T1, Human Calpain 9/NS1 (Homo sapiens, UniProt O14815).
T1 sequence (O14815 1-690): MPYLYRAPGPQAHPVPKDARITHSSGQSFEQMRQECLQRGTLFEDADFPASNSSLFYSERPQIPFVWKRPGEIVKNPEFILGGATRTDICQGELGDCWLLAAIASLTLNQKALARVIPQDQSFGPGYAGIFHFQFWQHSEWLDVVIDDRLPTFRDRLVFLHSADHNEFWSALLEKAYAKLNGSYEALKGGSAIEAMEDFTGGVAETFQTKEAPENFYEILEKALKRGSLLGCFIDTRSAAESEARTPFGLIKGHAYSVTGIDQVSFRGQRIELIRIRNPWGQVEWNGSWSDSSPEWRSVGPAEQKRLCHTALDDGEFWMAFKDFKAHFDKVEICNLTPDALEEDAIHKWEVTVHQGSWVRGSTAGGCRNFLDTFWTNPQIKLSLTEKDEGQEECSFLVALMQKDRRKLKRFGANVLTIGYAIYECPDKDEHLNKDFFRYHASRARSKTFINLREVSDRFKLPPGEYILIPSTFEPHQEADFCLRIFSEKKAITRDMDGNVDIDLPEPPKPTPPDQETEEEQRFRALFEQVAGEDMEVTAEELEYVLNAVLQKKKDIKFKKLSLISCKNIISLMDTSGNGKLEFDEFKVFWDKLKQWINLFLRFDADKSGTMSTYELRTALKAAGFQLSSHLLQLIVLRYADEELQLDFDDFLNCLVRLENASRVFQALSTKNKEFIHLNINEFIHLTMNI
T1 sequence (P04632 1-268 partner): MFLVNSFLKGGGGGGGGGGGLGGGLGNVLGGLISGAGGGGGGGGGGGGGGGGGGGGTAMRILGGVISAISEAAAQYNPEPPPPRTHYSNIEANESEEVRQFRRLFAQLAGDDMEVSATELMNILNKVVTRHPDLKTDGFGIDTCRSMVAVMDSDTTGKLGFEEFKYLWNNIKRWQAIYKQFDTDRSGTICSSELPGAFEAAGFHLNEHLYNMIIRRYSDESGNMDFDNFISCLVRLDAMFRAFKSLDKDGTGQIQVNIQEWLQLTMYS
Put plainly: Calpain inhibition continuous fluorescence (FRET) assay, Human Calpain 9/NS1. It is filed as biochemical. The following applies: read-out: Human Calpain 9/NS1 IC50. The gist of the method:
(§1)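 Continuous FRET read (ex 490/em 520 nm, 10 min) of calpain 1, 2 or 9 cleaving an internally quenched 5-FAM peptide, triggered by substrate with CaCl2 after enzyme–inhibitor incubation at ambient 25 °C, pH 7.5 Tris/NaCl/DTT buffer. IC50 from initial rates (1-5 min) via 4-parameter fit.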

The target in a further experiment is T2, Human Calpain 1/NS1 (Homo sapiens, UniProt P07384).
T2 sequence (P07384 1-714): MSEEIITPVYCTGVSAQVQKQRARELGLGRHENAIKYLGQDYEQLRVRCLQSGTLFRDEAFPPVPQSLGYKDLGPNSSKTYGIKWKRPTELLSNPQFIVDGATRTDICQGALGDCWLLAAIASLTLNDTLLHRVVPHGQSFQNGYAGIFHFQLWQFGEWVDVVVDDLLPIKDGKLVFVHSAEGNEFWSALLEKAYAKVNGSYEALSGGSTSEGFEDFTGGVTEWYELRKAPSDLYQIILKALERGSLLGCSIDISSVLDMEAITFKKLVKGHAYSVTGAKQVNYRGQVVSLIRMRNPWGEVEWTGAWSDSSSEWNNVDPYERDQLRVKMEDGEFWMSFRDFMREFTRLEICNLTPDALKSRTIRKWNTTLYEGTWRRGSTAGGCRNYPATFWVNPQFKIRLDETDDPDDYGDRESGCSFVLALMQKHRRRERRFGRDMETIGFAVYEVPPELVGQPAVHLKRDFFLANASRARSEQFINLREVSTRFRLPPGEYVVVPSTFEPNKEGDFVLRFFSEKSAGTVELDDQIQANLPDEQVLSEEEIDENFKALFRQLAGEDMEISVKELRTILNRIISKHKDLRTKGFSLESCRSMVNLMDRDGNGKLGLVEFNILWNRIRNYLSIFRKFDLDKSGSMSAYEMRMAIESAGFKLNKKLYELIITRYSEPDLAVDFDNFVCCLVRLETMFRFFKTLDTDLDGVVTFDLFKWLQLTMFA
T2 sequence (P04632 1-268 partner): T1 sequence (P04632 1-268 partner)
In words: Calpain inhibition continuous fluorescence (FRET) assay, Human Calpain 1/NS1. The format is biochemical. The following applies: read-out: Human Calpain 1/NS1 IC50. The essentials:
as §1

A further experiment concerns the target T3, Human Calpain 2/NS1 (Homo sapiens, UniProt P17655).
T3 sequence (P17655 1-700): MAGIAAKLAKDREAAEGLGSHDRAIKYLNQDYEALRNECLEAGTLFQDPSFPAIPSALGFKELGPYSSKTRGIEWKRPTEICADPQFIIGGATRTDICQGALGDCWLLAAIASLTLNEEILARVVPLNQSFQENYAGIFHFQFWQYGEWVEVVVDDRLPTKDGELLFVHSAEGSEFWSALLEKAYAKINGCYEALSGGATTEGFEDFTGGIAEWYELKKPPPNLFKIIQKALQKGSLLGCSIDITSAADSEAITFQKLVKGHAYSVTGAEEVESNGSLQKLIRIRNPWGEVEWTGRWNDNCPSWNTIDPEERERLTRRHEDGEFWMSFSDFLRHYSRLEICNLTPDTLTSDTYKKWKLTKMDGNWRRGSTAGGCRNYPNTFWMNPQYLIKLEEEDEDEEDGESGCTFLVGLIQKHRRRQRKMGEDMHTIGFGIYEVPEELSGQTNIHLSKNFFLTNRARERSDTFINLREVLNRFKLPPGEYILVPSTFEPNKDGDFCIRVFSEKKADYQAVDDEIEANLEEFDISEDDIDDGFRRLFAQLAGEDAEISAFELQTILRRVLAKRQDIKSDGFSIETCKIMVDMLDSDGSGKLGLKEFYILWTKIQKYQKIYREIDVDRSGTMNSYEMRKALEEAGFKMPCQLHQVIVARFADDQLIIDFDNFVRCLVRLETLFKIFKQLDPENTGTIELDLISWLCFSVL
T3 sequence (P04632 1-268 partner): T1 sequence (P04632 1-268 partner)
Put plainly: Calpain inhibition continuous fluorescence (FRET) assay, Human Calpain 2/NS1. It is filed as biochemical. The note with it: read-out: Human Calpain 2/NS1 IC50. The essentials:
as §1

Experiment [1] relates to Calpain activity in SH-SY5Y cells (SBDP-150). In words: SH-SY5Y Spectrin western blot assay (SBDP-150 breakdown product, A23187-induced). It is filed as cell-based. The note with it: Homo sapiens, SH-SY5Y cells, read-out: SH-SY5Y Spectrin IC50. In general terms: A western blot detects proteins with antibodies after separation by electrophoresis.
Experiment [2] has as its system Calpain activity in SH-SY5Y cells. In words: SH-SY5Y + AMC fluorescence assay (Suc-LLVY-AMC substrate). The format is cell-based. The note with it: read-out: SH-SY5Y + AMC IC50.
Setting [3] is: Column D, A23187-induced SBDP-150.
[4] abbreviates: A23187-induced SBDP-150, western blot.

As for `Cc1cc(C(=O)N[C@@H](Cc2ccccc2)C(=O)C(N)=O)c(-c2ccccc2)o1` [Compound 118, (S)—N-(4-amino-3,4-dioxo-1-phenylbutan-2-yl)-5-methyl-2-phenylfuran-3-carboxamide], the IC50 on Human Calpain 9/NS1 (Column C) was under 3 µM; at Human Calpain 1/NS1 (Column A) it was under 3 µM; on Human Calpain 2/NS1 (Column B), under 3 µM; in experiment [1] (setting [3]) it was under 10 µM; in experiment [2] (Column E), over 25 µM.

`Cc1cccc(-c2oncc2C(=O)NC(Cc2ccccc2)C(=O)C(N)=O)c1F` (stereo not drawn) [Compound 584, N-(4-amino-3,4-dioxo-1-phenylbutan-2-yl)-5-(2-fluoro-3-methylphenyl)isoxazole-4-carboxamide]: the IC50 at Human Calpain 9/NS1 was under 3 µM; on Human Calpain 1/NS1, under 3 µM; on Human Calpain 2/NS1 it was under 3 µM; in experiment [1] (setting [4]), under 10 µM; in experiment [2] it was 10 to 25 µM.

`Cc1cc(C(=O)N[C@@H](Cc2ccccc2)C(=O)C(N)=O)n(-c2ccc(COCc3ccccc3)cc2)n1` [Compound 228, (S)—N-(4-amino-3,4-dioxo-1-phenylbutan-2-yl)-1-(4-((benzyloxy)methyl)phenyl)-3-methyl-1H-pyrazole-5-carboxamide]: the IC50 was under 3 µM on Human Calpain 9/NS1 (Column C); under 3 µM at Human Calpain 1/NS1 (Column A); under 3 µM at Human Calpain 2/NS1 (Column B); under 10 µM in experiment [1] (setting [3]); over 25 µM in experiment [2] (Column E).

Regarding `COc1nccc(-n2nc(C)cc2C(=O)NC(Cc2ccccc2)C(=O)C(N)=O)n1` (stereo not drawn) [Compound 436, N-(4-amino-3,4-dioxo-1-phenylbutan-2-yl)-1-(2-methoxypyrimidin-4-yl)-3-methyl-1H-pyrazole-5-carboxamide], the IC50 on Human Calpain 9/NS1 is under 3 µM; at Human Calpain 1/NS1 it was under 3 µM; at Human Calpain 2/NS1, under 3 µM; in experiment [1] (setting [4]), over 25 µM; in experiment [2] it was under 10 µM.

For the compound `Cc1cc(C(=O)N[C@@H](Cc2ccccc2)C(=O)C(N)=O)n(-c2ccc(S(C)(=O)=O)cc2)n1` [Compound 17, (S)—N-(4-amino-3,4-dioxo-1-phenylbutan-2-yl)-3-methyl-1-(4-(methylsulfonyl)phenyl)-1H-pyrazole-5-carboxamide], the IC50 was under 3 µM on Human Calpain 9/NS1 (Column C); under 3 µM on Human Calpain 1/NS1 (Column A); under 3 µM at Human Calpain 2/NS1 (Column B); under 10 µM in experiment [1] (setting [3]); over 25 µM in experiment [2] (Column E).

In the case of `NC(=O)C(=O)C(Cc1ccccc1)NC(=O)c1nsnc1-c1ccncc1` (stereo not drawn) [Compound 371, N-(4-amino-3,4-dioxo-1-phenylbutan-2-yl)-4-(pyridin-4-yl)-1,2,5-thiadiazole-3-carboxamide], the IC50 at Human Calpain 9/NS1 was under 3 µM; at Human Calpain 1/NS1, under 3 µM; on Human Calpain 2/NS1, under 3 µM; in experiment [1] (setting [4]), under 10 µM; in experiment [2], under 10 µM.

Consider `Cn1cc(C(=O)N[C@@H](Cc2ccccc2)C(=O)C(N)=O)c(-c2cccc(F)c2)n1` [Compound 178, (S)—N-(4-amino-3,4-dioxo-1-phenylbutan-2-yl)-3-(3-fluorophenyl)-1-methyl-1H-pyrazole-4-carboxamide], for which the IC50 is under 3 µM on Human Calpain 9/NS1 (Column C); under 3 µM on Human Calpain 1/NS1 (Column A); under 3 µM on Human Calpain 2/NS1 (Column B); under 10 µM in experiment [1] (setting [3]); under 10 µM in experiment [2] (Column E).

As to `Cn1cc(C(=O)N[C@@H](Cc2ccccc2)C(=O)C(=O)NCCC(N)=O)c(-c2ccccc2)n1` [Compound 338, (S)—N-(4-((3-amino-3-oxopropyl)amino)-3,4-dioxo-1-phenylbutan-2-yl)-1-methyl-3-phenyl-1H-pyrazole-4-carboxamide], the IC50 was under 3 µM at Human Calpain 9/NS1; under 3 µM at Human Calpain 1/NS1; under 3 µM at Human Calpain 2/NS1; over 25 µM in experiment [1] (setting [4]); under 10 µM in experiment [2].

Regarding `NC(=O)C(=O)C(Cc1ccccc1)NC(=O)c1c(Cl)cnn1-c1ncccn1` (stereo not drawn) [Compound 347, N-(4-amino-3,4-dioxo-1-phenylbutan-2-yl)-4-chloro-1-(pyrimidin-2-yl)-1H-pyrazole-5-carb oxamide], the IC50 is under 3 µM at Human Calpain 9/NS1; under 3 µM at Human Calpain 1/NS1; under 3 µM at Human Calpain 2/NS1; 10 to 25 µM in experiment [1] (setting [4]); over 25 µM in experiment [2].

As for `Cc1cncc(-c2nn(C(F)F)cc2C(=O)NC(Cc2ccccc2)C(=O)C(N)=O)c1` (stereo not drawn) [Compound 582, N-(4-amino-3,4-dioxo-1-phenylbutan-2-yl)-1-(difluoromethyl)-3-(5-methylpyridin-3-yl)-1H-pyrazole-4-carboxamide], the IC50 on Human Calpain 9/NS1 was under 3 µM; on Human Calpain 1/NS1 it was under 3 µM; at Human Calpain 2/NS1, under 3 µM; in experiment [1] (setting [4]) it was under 10 µM; in experiment [2] it was 10 to 25 µM.

In the case of `Cc1cc(C(=O)N[C@@H](Cc2ccccc2)C(=O)C(N)=O)n(-c2cccc(CNS(=O)(=O)c3ccccc3)c2)n1` [Compound 145, (S)—N-(4-amino-3,4-dioxo-1-phenylbutan-2-yl)-3-methyl-1-(3-(phenylsulfonamidomethyl)phenyl)-1H-pyrazole-5-carboxamide], the IC50 on Human Calpain 9/NS1 (Column C) is under 3 µM; at Human Calpain 1/NS1 (Column A) it was under 3 µM; at Human Calpain 2/NS1 (Column B) it was under 3 µM; in experiment [1] (setting [3]), under 10 µM; in experiment [2] (Column E) it was under 10 µM.

Regarding `NC(=O)C(=O)C(Cc1ccccc1)NC(=O)c1cn(C(F)F)nc1-c1cccc2ncccc12` (stereo not drawn) [Compound 576, N-(4-amino-3,4-dioxo-1-phenylbutan-2-yl)-1-(difluoromethyl)-3-(quinolin-5-yl)-1H-pyrazole-4-carboxamide], the IC50 at Human Calpain 9/NS1 is under 3 µM; at Human Calpain 1/NS1 it was under 3 µM; at Human Calpain 2/NS1, under 3 µM; in experiment [1] (setting [4]), under 10 µM; in experiment [2], under 10 µM.
